Reference: the supplement of paper PMC13380429

Tests used:
Conditions in all cases: 72 h
Caco-2 [1] = experiment: cell viability relative to DMSO; higher = less toxic
Calu-3 [2] = experiment: as above
HepG2 [3] = experiment: as above
U2OS [4] = experiment: as above
Vero E6 [5] = experiment: as above
Caco-2 [6] = experiment: relative viability EC50 (midpoint between 100% and the lowest measured viability); higher = less toxic
Calu-3 [7] = experiment: as above
HepG2 [8] = experiment: as above
U2OS [9] = experiment: as above
Vero E6 [10] = experiment: as above
Caco-2 [11] = experiment: drug sensitivity score (DSS) for viability; higher = more toxic; extreme values may be limits of the assay
Calu-3 [12] = experiment: as above
HepG2 [13] = experiment: as above
U2OS [14] = experiment: as above
Vero E6 [15] = experiment: as above

| SMILES | cell viability (Caco-2 [1]; 1 nM) [%] | cell viability (Caco-2 [1]; 10 nM) [%] | cell viability (Caco-2 [1]; 100 nM) [%] | cell viability (Caco-2 [1]; 1000 nM) [%] | cell viability (Caco-2 [1]; 10000 nM) [%] | cell viability (Calu-3 [2]; 1 nM) [%] | cell viability (Calu-3 [2]; 10 nM) [%] | cell viability (Calu-3 [2]; 100 nM) [%] | cell viability (Calu-3 [2]; 1000 nM) [%] | cell viability (Calu-3 [2]; 10000 nM) [%] | cell viability (HepG2 [3]; 1 nM) [%] | cell viability (HepG2 [3]; 10 nM) [%] | cell viability (HepG2 [3]; 100 nM) [%] | cell viability (HepG2 [3]; 1000 nM) [%] | cell viability (HepG2 [3]; 10000 nM) [%] | cell viability (U2OS [4]; 1 nM) [%] | cell viability (U2OS [4]; 10 nM) [%] | cell viability (U2OS [4]; 100 nM) [%] | cell viability (U2OS [4]; 1000 nM) [%] | cell viability (U2OS [4]; 10000 nM) [%] | cell viability (Vero E6 [5]; 1 nM) [%] | cell viability (Vero E6 [5]; 10 nM) [%] | cell viability (Vero E6 [5]; 100 nM) [%] | cell viability (Vero E6 [5]; 1000 nM) [%] | cell viability (Vero E6 [5]; 10000 nM) [%] | relative viability EC50 (Caco-2 [6]) [µM] | relative viability EC50 (Calu-3 [7]) [µM] | relative viability EC50 (HepG2 [8]) [µM] | relative viability EC50 (U2OS [9]) [µM] | relative viability EC50 (Vero E6 [10]) [µM] | drug sensitivity score (Caco-2 [11]) | drug sensitivity score (Calu-3 [12]) | drug sensitivity score (HepG2 [13]) | drug sensitivity score (U2OS [14]) | drug sensitivity score (Vero E6 [15]) |
| --- | --- | --- | --- | --- | --- | --- | --- | --- | --- | --- | --- | --- | --- | --- | --- | --- | --- | --- | --- | --- | --- | --- | --- | --- | --- | --- | --- | --- | --- | --- | --- | --- | --- | --- | --- |
| CCCCCOC(=O)Nc1nc(=O)n([C@@H]2O[C@H](C)[C@@H](O)[C@H]2O)cc1F [capecitabine] | 107 | 110 | 103 | 96.1 | 106 | 99 | 110 | 91.8 | 98.6 | 101 | 97 | 104 | 104 | 99.9 | 96.3 | 96.7 | 103 | 94.3 | 92.6 | 101 | 102 | 101 | 99.7 | 95 | 95.6 | > 10 | > 10 | > 10 | > 10 | > 10 | 0 | 0 | 0 | 0 | 0 |
| CC1(C)CCC(C)(C)c2cc(C3(c4ccc5cc(C(=O)O)ccc5c4)SCCS3)ccc21 | 106 | 104 | 93.9 | 94.7 | 94.6 | 104 | 106 | 89.4 | 113 | 98.8 | 101 | 85.2 | 96.3 | 106 | 102 | 97.9 | 104 | 94.4 | 93.5 | 98.6 | 95.8 | 98.7 | 96.6 | 98 | 100 | > 10 | > 10 | > 10 | > 10 | > 10 | 0 | 0 | 0 | 0 | 0 |
| CC[C@]12CCCN3CCc4c(n(c5ccccc45)C(=O)C1)[C@@H]32 [vinburnine] | 94.4 | 98.5 | 106 | 114 | 78.6 | 96.8 | 97.4 | 93.7 | 97.7 | 88.8 | 93.6 | 89.9 | 102 | 78.7 | 32.2 | 94.2 | 97.4 | 96.7 | 95.6 | 79.3 | 103 | 96.6 | 100 | 96.9 | 86.2 | > 10 | > 10 | 1.37 | > 10 | > 10 | 0.4 | 0 | 6.8 | 1.2 | 0.4 |
| Cn1c(CNc2ccc(C(=N)N)cc2)nc2cc(C(=O)N(CCC(=O)O)c3ccccn3)ccc21 [dabigatran] | 109 | 97.1 | 101 | 94 | 95.5 | 114 | 99.6 | 90.1 | 93.7 | 92.8 | 103 | 95.8 | 104 | 97.8 | 91.7 | 104 | 99.3 | 101 | 97.1 | 98.1 | 96.9 | 96.4 | 99.1 | 101 | 99 | > 10 | > 10 | > 10 | > 10 | > 10 | 0 | 0 | 0 | 0 | 0 |
| CC(C)c1onc(-c2c(Cl)cccc2Cl)c1COc1ccc(/C=C/c2cccc(C(=O)O)c2)c(Cl)c1 [GW-4064] | 94 | 99.4 | 102 | 91 | 81.4 | 93.9 | 107 | 103 | 102 | 96.5 | 105 | 103 | 92.4 | 99.2 | 93.8 | 98.2 | 106 | 96.4 | 93.3 | 97.7 | 95.5 | 99.8 | 94 | 93.8 | 95.7 | > 10 | > 10 | > 10 | > 10 | > 10 | 1.4 | 0 | 0 | 0 | 0 |
| O=c1cc[nH]c(=O)[nH]1 [uracil] | 91.5 | 90.6 | 91.3 | 93.8 | 98.5 | 91.8 | 95.2 | 93 | 94.6 | 95.6 | 98.6 | 94 | 99.6 | 102 | 117 | 91.7 | 98.7 | 94.8 | 102 | 103 | 96.2 | 88.4 | 91.8 | 89.5 | 112 | > 10 | > 10 | > 10 | > 10 | > 10 | 0 | 0 | 0 | 0 | 0 |
| CC(=O)[C@@]1(O)CC[C@H]2[C@@H]3C[C@H](C)C4=CC(=O)CC[C@]4(C)[C@H]3CC[C@@]21C [medroxyprogesterone] | 96.8 | 96.7 | 92.4 | 91.7 | 89.1 | 86.5 | 104 | 95.6 | 104 | 103 | 94.7 | 98.5 | 103 | 106 | 84.1 | 105 | 97.3 | 97.5 | 94.4 | 94.8 | 105 | 99.5 | 98.1 | 99 | 89 | > 10 | > 10 | > 10 | > 10 | > 10 | 0 | 0 | 0.2 | 0 | 0 |
